Test results reported in US20080241904A1, “PROCESS FOR PRODUCING ISOMALTOSE AND USES THEREOF” (KABUSHIKI KAISHA HAYASHIBARA SEIBUTSU KAGAKU KENKYUJO, priority 2001, published 2008).

Tests used:
[1] = system: α-isomaltosylglucosaccharide-forming enzyme from Bacillus globisporus C9; assay: Action of α-isomaltosylglucosaccharide-forming enzyme on saccharides as substrates (TLC), enzyme of Strain C9; format: biochemical; set-up: key: −: it showed no change; +: it showed a slight reduction of the color of substrate spot and the formation of other reaction product; ++: it showed a high reduction of the color of substrate spot and the formation of other reaction product; +++: it showed a substantial disappearance of the color of substrate spot and the formation of other reaction product; settings: two units/g substrate, substrate 2% (w/v), 30° C., pH 6.0, 24 hours
Protocol: (§1) The action of α-isomaltosylglucosaccharide-forming enzyme on saccharides as substrates was tested. First, a solution of maltose, maltotriose, maltotetraose, maltopentaose, maltohexaose, maltoheptaose, isomaltose, isomaltotriose, panose, isopanose, α,α-trehalose (may be abbreviated as “trehalose” hereinafter), kojibiose, nigerose, neotrehalose, cellobiose, gentibiose, maltitol, maltotriitol, lactose, sucrose, erlose, selaginose, maltosyl glucoside, or isomaltosyl glucoside was prepared. To each of the above solutions was added two units/g substrate of the purified specimen of α-isomaltosylglucosaccharide-forming enzyme from Bacillus globisporus C9 in Experiment 2-1 or Bacillus globisporus C11 in Experiment 4-1, and each resulting solution was adjusted to give a substrate concentration of 2% (w/v) and incubated at 30° C. and pH 6.0 for 24 hours. The solutions before and after the enzymatic reactions were respectively subjected to thin-layer chromatography (abbreviated as “TLC” hereinafter). TLC was carried out in such a manner of separating saccharides by developing the solutions twice each using, as a developer, a mixture solution of n-butanol, pyridine, and water (=6:4:1), and, as a thin-layer plate, “[…] 60”, an aluminum plate (20×20 cm) for TLC commercialized by Merck & Co., Inc., Rahway, USA.; detecting the total saccharides in each mixture solution by spraying a mixture of sulfuric acid and methanol onto the aluminum plates to develop color of the total saccharides and detecting non-reducing saccharides in each mixture solution by the diphenylamine-aniline method.

[2] = system: α-isomaltosylglucosaccharide-forming enzyme from Bacillus globisporus C11 strain; assay: Specificity of saccharide transferring reaction acceptor, enzyme of Strain C11; format: biochemical; settings: 1.6% acceptor, 4% PINE-DEX #100 as donor, one unit/g donor, 30° C., pH 6.0, 24 hours; GLC or HPLC
Protocol: (§2) Using different saccharides, it was tested whether the saccharides were used as saccharide transferring reaction acceptors for the α-isomaltosylglucosaccharide-forming enzyme. A 1.6% solution, as a solution of saccharide transferring reaction acceptor, of D-glucose, D-xylose, L-xylose, D-galactose, D-fructose, D-mannose, D-arabinose, D-fucose, L-sorbose, L-rhamnose, methyl-α-glucopyranoside (methyl-α-glucose), methyl-β-glucopyranoside ([…]), N-acetyl-glucosamine, sorbitol, α,α-trehalose, isomaltose, isomaltotriose, cellobiose, gentibiose, maltitol, lactose, sucrose, α-cyclodextrin, β-cyclodextrin, or γ-cyclodextrin, was prepared. To each solution with a saccharide concentration was added “PINE-DEX #100”, a partial starch hydrolysate, as a saccharide donor, to give a concentration of 4%, and admixed with one unit/g saccharide donor, d.s.b., of either of purified specimens of α-isomaltosylglucosaccharide-forming enzyme from Bacillus globisporus C9 strain obtained by the method in Experiment 2-1, Bacillus globisporus C11 strain obtained by the method in Experiment 4-1. The resulting mixture solutions were incubated at 30° C. and pH 6.0 except that the enzyme from Arthrobacter globiformis A19 strain was incubated at pH 8.4 for 24 hours. The reaction mixtures of the post-enzymatic reactions were analyzed on gas chromatography (abbreviated as “GLC” hereinafter) for monosaccharides and disaccharides as acceptors, and on HPLC for trisaccharides as acceptors to confirm whether these saccharides could be used as their saccharide transferring reaction acceptors. In the case of performing GLC, the following apparatuses and conditions are used: GLC apparatus, “GC-16A” commercialized by Shimadzu Corporation, Tokyo, Japan; column, a stainless-steel column, 3 mm in diameter and 2 m in length, packed with 2% “SILICONE OV-17/CHROMOSOLV W”, commercialized by GL Sciences Inc., Tokyo, Japan; carrier gas, nitrogen gas at a flow rate of 40 ml/min under temperature conditions of increasing from 160° C. to 320° C. at an increasing temperature rate of 7.5° C./min; and detection, a hydrogen flame ionization detector.
(§3) In the case of HPLC analysis, the apparatuses and conditions used were: HPLC apparatus, “CCPD” commercialized by Tosoh Corporation, Tokyo, Japan; column, “ODS-AQ-303” commercialized by YMC Co., Ltd., Tokyo, Japan; eluent, water at a flow rate of 0.5 ml/min; and detection, a differential refractometer.

[3] = system: α-isomaltosylglucosaccharide-forming enzyme from Bacillus globisporus C11; assay: Action of α-isomaltosylglucosaccharide-forming enzyme on saccharides as substrates (TLC), enzyme of Strain C11; format: biochemical; set-up: key: −: it showed no change; +: it showed a slight reduction of the color of substrate spot and the formation of other reaction product; ++: it showed a high reduction of the color of substrate spot and the formation of other reaction product; +++: it showed a substantial disappearance of the color of substrate spot and the formation of other reaction product; settings: two units/g substrate, substrate 2% (w/v), 30° C., pH 6.0, 24 hours
Protocol: as §1

[4] = system: α-isomaltosylglucosaccharide-forming enzyme from Bacillus globisporus C9 strain; assay: Specificity of saccharide transferring reaction acceptor, enzyme of Strain C9; format: biochemical; settings: 1.6% acceptor, 4% PINE-DEX #100 as donor, one unit/g donor, 30° C., pH 6.0, 24 hours; GLC or HPLC
Protocol: as §2, §3

[5] = system: α-isomaltosylglucosaccharide-forming enzyme; assay: Influence of metal ions on enzyme activity, Experiment 4-2 (Strain C11); format: biochemical, Bacillus globisporus C11; settings: in the presence of 1 mM of each metal ion, None = 100
[6] = system: α-isomaltosyl-transferring enzyme; assay: Influence of metal ions on activity of α-isomaltosyl-transferring enzyme (Strain C9); format: biochemical, Bacillus globisporus C9; settings: in the presence of 1 mM of each metal ion, None = 100
Protocol: The α-isomaltosyl-transferring enzyme was assayed for enzymatic activity by dissolving panose in 100 mM acetate buffer (pH 6.0) to give a concentration of 2% (w/v) for a substrate solution, adding a 0.5 ml of an enzyme solution to 0.5 ml of the substrate solution, enzymatically reacting the mixture solution at 35° C. for 30 min, suspending the reaction mixture by boiling for 10 min, and quantifying glucose, among the cyclotetrasaccharide and glucose formed in the reaction mixture, by the glucose oxidase method. One unit activity of the α-isomaltosyl-transferring enzyme is defined as the enzyme amount that forms one micromole of glucose per minute under the above enzymatic reaction conditions.
The influence of metal ions on the activity of α-isomaltosyl-transferring enzyme was examined in the presence of 1 mM of each metal-ion according to the assay for the enzyme activity.

Compound	Enzymatic action, Enzyme of Strain C9 [1]	Product of saccharide transferring reaction, Enzyme of Strain C11 [2]	Enzymatic action, Enzyme of Strain C11 [3]	Product of saccharide transferring reaction, Enzyme of Strain C9 [4]	Relative activity [5] [%]	Relative activity ([5]; listed as Fe^3+) [%]	Relative activity [6] [%]	Relative activity ([6]; listed as Fe^3+) [%]
OC[C@H]1O[C@H](O[C@H]2O[C@H](CO)[C@@H](O)[C@H](O)[C@H]2O)[C@H](O)[C@@H](O)[C@@H]1O [Trehalose, α,α-trehalose]	−	++ (a saccharide-transferred product was detected in an amount of at least ten percent through transferring reaction to acceptor)	−	++ (a saccharide-transferred product was detected in an amount of at least ten percent through transferring reaction to acceptor)				
OC[C@H]1O[C@@](CO)(O[C@H]2O[C@H](CO)[C@@H](O)[C@H](O)[C@H]2O)[C@@H](O)[C@@H]1O [Sucrose, sucrose]	−	++ (a saccharide-transferred product was detected in an amount of at least ten percent through transferring reaction to acceptor)	−	++ (a saccharide-transferred product was detected in an amount of at least ten percent through transferring reaction to acceptor)				
OC[C@H]1O[C@@H](O[C@H]2[C@H](O)[C@@H](O)C(O)O[C@@H]2CO)[C@H](O)[C@@H](O)[C@H]1O (stereo partly shown) [Lactose, lactose]	−	++ (a saccharide-transferred product was detected in an amount of at least ten percent through transferring reaction to acceptor)	−	++ (a saccharide-transferred product was detected in an amount of at least ten percent through transferring reaction to acceptor)				
[Fe+2] [Fe^2+]					100	102	96	105
OC[C@H]1O[C@@H](OC[C@H]2OC(O)[C@H](O)[C@@H](O)[C@@H]2O)[C@H](O)[C@@H](O)[C@@H]1O (stereo partly shown) [Gentibiose, gentibiose]	−	++ (a saccharide-transferred product was detected in an amount of at least ten percent through transferring reaction to acceptor)	−	++ (a saccharide-transferred product was detected in an amount of at least ten percent through transferring reaction to acceptor)				
O=C[C@H](O)[C@@H](O)[C@H](O[C@@H]1O[C@H](CO)[C@@H](O)[C@H](O)[C@H]1O)[C@H](O)CO [Cellobiose, cellobiose]	−	++ (a saccharide-transferred product was detected in an amount of at least ten percent through transferring reaction to acceptor)	−	++ (a saccharide-transferred product was detected in an amount of at least ten percent through transferring reaction to acceptor)				
OC[C@H]1O[C@H](OC[C@H]2OC(O)[C@H](O)[C@@H](O)[C@@H]2O)[C@H](O)[C@@H](O)[C@@H]1O (stereo partly shown) [Isomaltose, isomaltose]	−	++ (a saccharide-transferred product was detected in an amount of at least ten percent through transferring reaction to acceptor)	−	++ (a saccharide-transferred product was detected in an amount of at least ten percent through transferring reaction to acceptor)				
OC[C@H]1O[C@H](OC[C@H]2O[C@H](OC[C@H]3OC(O)[C@H](O)[C@@H](O)[C@@H]3O)[C@H](O)[C@@H](O)[C@@H]2O)[C@H](O)[C@@H](O)[C@@H]1O (stereo partly shown) [Isomaltotriose, isomaltotriose]	−	++ (a saccharide-transferred product was detected in an amount of at least ten percent through transferring reaction to acceptor)	−	++ (a saccharide-transferred product was detected in an amount of at least ten percent through transferring reaction to acceptor)				
OC[C@@H](O)[C@@H](O[C@H]1O[C@H](CO)[C@@H](O)[C@H](O)[C@H]1O)[C@H](O)[C@@H](O)CO [Maltitol, maltitol]	−	++ (a saccharide-transferred product was detected in an amount of at least ten percent through transferring reaction to acceptor)	−	++ (a saccharide-transferred product was detected in an amount of at least ten percent through transferring reaction to acceptor)				
OC[C@@H](O)[C@@H](O[C@H]1O[C@H](CO)[C@@H](O[C@H]2O[C@H](CO)[C@@H](O)[C@H](O)[C@H]2O)[C@H](O)[C@H]1O)[C@H](O)[C@@H](O)CO [Maltotriitol, maltotriitol]	+		+					
OC[C@H]1O[C@@H](O[C@H]2O[C@H](CO)[C@@H](O)[C@H](O)[C@H]2O)[C@H](O)[C@@H](O)[C@@H]1O [Neotrehalose, neotrehalose]	+		+					
